Laboratory results as given in the NIST ThermoML archive (doi:10.1016/j.jct.2015.10.004).
Where “and” joins values, the source holds several entries; their conditions need not be identical. Equal entries are not always repeated. Numbers after ± are expanded uncertainties.

Experiment: mn = molality of the nth substance listed, in mol/kg
Conditions: 101 kPa, Liquid; for mass density: Pycnometric method; for electrical conductivity: Alternating current cell with electrodes

O=S(=O)([O-])C(F)(F)C(F)(F)C(F)(F)C(F)(F)F.[K+] [potassium perfluorobutanesulfonate] + O
Conditions	electrical conductivity, 293.15 K [S/m]	electrical conductivity, 298.15 K [S/m]	electrical conductivity, 303.15 K [S/m]	electrical conductivity, 308.15 K [S/m]	electrical conductivity, 313.15 K [S/m]	mass density, 288.15 K [kg/m3]	mass density, 293.15 K [kg/m3]	mass density, 298.15 K [kg/m3]	mass density, 303.15 K
m1 = 0.0003	0.00278 ± 0.0004	0.00312 ± 0.00045	0.00344 ± 0.0005	0.00378 ± 0.00055	0.00413 ± 0.0006	–	–	–	–
m1 = 0.00054	0.00499 ± 0.00046	0.00562 ± 0.00052	0.00619 ± 0.00058	0.00681 ± 0.00063	0.00742 ± 0.00069	–	–	–	–
m1 = 0.00087	0.00784 ± 0.00058	0.00882 ± 0.00066	0.00972 ± 0.00072	0.0107 ± 0.0008	0.0117 ± 0.00087	–	–	–	–
m1 = 0.00125	0.0111 ± 0.00075	0.0125 ± 0.00085	0.0138 ± 0.00093	0.0152 ± 0.001	0.0166 ± 0.0011	–	–	–	–
m1 = 0.00164	0.0145 ± 0.00093	0.0163 ± 0.001	0.018 ± 0.0012	0.0197 ± 0.0013	–	–	–	–	–
m1 = 0.00207	0.0181 ± 0.0011	0.0203 ± 0.0013	0.0226 ± 0.0014	0.0248 ± 0.0016	0.0271 ± 0.0017	–	–	–	–
m1 = 0.00259	0.0227 ± 0.0014	0.0253 ± 0.0016	0.0279 ± 0.0017	0.0307 ± 0.0019	0.0335 ± 0.0021	–	–	–	–
m1 = 0.00315	0.0273 ± 0.0017	0.0304 ± 0.0019	0.0336 ± 0.0021	0.0369 ± 0.0023	0.0403 ± 0.0025	–	–	–	–
m1 = 0.00374	0.0322 ± 0.002	0.0357 ± 0.0022	0.0395 ± 0.0024	0.0434 ± 0.0026	0.0474 ± 0.0029	–	–	–	–
m1 = 0.00437	0.0372 ± 0.0023	0.0415 ± 0.0025	0.0457 ± 0.0028	0.0504 ± 0.0031	0.0549 ± 0.0033	–	–	–	–
m1 = 0.00501	0.0423 ± 0.0026	0.0471 ± 0.0028	0.0521 ± 0.0032	0.0572 ± 0.0035	0.0625 ± 0.0038	–	–	–	–
m1 = 0.00571	0.0478 ± 0.0029	0.0532 ± 0.0032	0.0588 ± 0.0035	0.0646 ± 0.0039	0.0705 ± 0.0043	–	–	–	–
m1 = 0.00646	0.0537 ± 0.0032	0.0596 ± 0.0036	0.0658 ± 0.004	0.0725 ± 0.0044	0.0792 ± 0.0048	–	–	–	–
m1 = 0.00723	0.0596 ± 0.0036	0.0662 ± 0.004	0.0732 ± 0.0044	0.0805 ± 0.0048	0.0878 ± 0.0053	–	–	–	–
m1 = 0.00809	0.0661 ± 0.004	0.0734 ± 0.0044	0.081 ± 0.0049	–	0.0976 ± 0.0059	–	–	–	–
m1 = 0.00904	0.0731 ± 0.0044	0.0814 ± 0.0049	–	–	–	–	–	–	–
m1 = 0.04	–	–	–	–	–	1006.5 ± 0.5	1005.6 ± 0.5	1004.3 ± 0.5	1002.7 ± 0.5 kg/m3 and 1002.8 ± 0.5 kg/m3

O=S(=O)([O-])C(F)(F)C(F)(F)C(F)(F)C(F)(F)C(F)(F)C(F)(F)C(F)(F)C(F)(F)F.[K+] [potassium perfluorooctanesulfonate] + O
Conditions	electrical conductivity, 293.15 K [S/m]	electrical conductivity, 298.15 K [S/m]	electrical conductivity, 303.15 K [S/m]	electrical conductivity, 308.15 K [S/m]	electrical conductivity, 313.15 K [S/m]	mass density, 288.15 K [kg/m3]	mass density, 293.15 K [kg/m3]	mass density, 298.15 K	mass density, 303.15 K
m1 = 0.0003	–	0.00301 ± 0.00041	0.00325 ± 0.0004	0.00359 ± 0.00046	0.00392 ± 0.00051	–	–	–	–
m1 = 0.00033	0.00284 ± 0.00033	0.00326 ± 0.00042	0.00353 ± 0.0004	0.0039 ± 0.00046	0.00427 ± 0.0005	–	–	–	–
m1 = 0.00036	0.00306 ± 0.00038	0.00352 ± 0.00041	0.00381 ± 0.00045	0.0042 ± 0.0005	0.0046 ± 0.00055	–	–	–	–
m1 = 0.00039	0.00326 ± 0.00036	0.00376 ± 0.00041	0.00407 ± 0.00045	0.00449 ± 0.00049	0.00492 ± 0.00054	–	–	–	–
m1 = 0.00041	0.00347 ± 0.00038	0.00399 ± 0.00044	0.00432 ± 0.00048	0.00478 ± 0.00053	0.00522 ± 0.00057	–	–	–	–
m1 = 0.00044	0.00366 ± 0.00038	0.00421 ± 0.00044	0.00456 ± 0.00048	0.00504 ± 0.00054	0.0055 ± 0.00058	–	–	–	–
m1 = 0.00046	0.00384 ± 0.00037	0.00444 ± 0.00043	0.00481 ± 0.00047	0.00531 ± 0.00052	0.0058 ± 0.00056	–	–	–	–
m1 = 0.00049	0.00404 ± 0.00041	0.00466 ± 0.00047	0.00506 ± 0.00051	0.0056 ± 0.00058	0.0061 ± 0.00061	–	–	–	–
m1 = 0.0005	–	–	–	–	–	999.3 ± 0.5	998.3 ± 0.5	997.1 ± 0.5 kg/m3 and 997.2 ± 0.5 kg/m3	995.7 ± 0.5 kg/m3 and 995.8 ± 0.5 kg/m3
m1 = 0.00052	0.00427 ± 0.0004	0.00492 ± 0.00046	0.00534 ± 0.0005	0.00592 ± 0.00056	0.00644 ± 0.0006	–	–	–	–
m1 = 0.00054	0.00447 ± 0.00041	0.00516 ± 0.00047	0.00559 ± 0.00051	0.00621 ± 0.00057	0.00673 ± 0.00061	–	–	–	–
m1 = 0.00057	0.00468 ± 0.00044	0.00541 ± 0.00051	0.00586 ± 0.00055	0.0065 ± 0.00061	0.00706 ± 0.00066	–	–	–	–
m1 = 0.0006	0.0049 ± 0.00041	0.00564 ± 0.00048	0.00612 ± 0.00052	0.00679 ± 0.00057	0.00737 ± 0.00062	–	–	–	–
m1 = 0.00062	0.0051 ± 0.00043	0.00589 ± 0.00049	0.00638 ± 0.00053	0.00709 ± 0.00059	0.00769 ± 0.00064	–	–	–	–
m1 = 0.00066	0.00534 ± 0.00045	0.00616 ± 0.00052	0.00667 ± 0.00055	0.00742 ± 0.00063	0.00805 ± 0.00068	–	–	–	–
m1 = 0.00069	0.00559 ± 0.00044	0.00643 ± 0.00051	0.00697 ± 0.00056	0.00775 ± 0.00062	0.00843 ± 0.00067	–	–	–	–
m1 = 0.00071	0.0058 ± 0.00051	0.00669 ± 0.00054	0.00724 ± 0.00059	0.00806 ± 0.00066	0.00875 ± 0.00072	–	–	–	–
m1 = 0.00075	–	0.00698 ± 0.00051	0.00756 ± 0.00061	0.00841 ± 0.00059	0.00914 ± 0.00067	–	–	–	–
m1 = 0.00078	–	0.00721 ± 0.00053	0.00782 ± 0.00061	0.00871 ± 0.00063	–	–	–	–	–
